The source of these data is patent US20230240300A1, “NANO[…] MATERIAL BASED ON NIOBIUM OLIGOMERS, OBTENTION METHOD, AND USE” (UNIVERSIDADE FEDERAL DE MINAS GERAIS, priority 2020, published 2023).

For this assay, the system named is coronavirus. Briefly: viral load reduction study, compound mixed with virus suspension. Type of assay: cell-based. To be noted: eight parts compound mixed with one part virus suspension, room temperature, 10 min contact; FIG. 4(A). As to the method: For viral load reduction studies directly employing the coronavirus, eight parts of the compound were adapted to room temperature (RT) and mixed with one part of the virus suspension. Immediately after incubation for defined periods at room temperature, the mixture was diluted 1:10. After four days of incubation at 37° C. in a CO2 incubator, cells were microscopically examined for virus-specific cytopathogenic effects after 10 min of virus contact with the niobium compound. All tests were performed in triplicate.
Initially, exploratory studies were carried out with different proportions of the compounds and with the materials separately. […] In fact, the results of samples S10 (representing a solution containing pure CTAB dissolved in water) and S12 (sample containing the same content of CTAB reacted with niobium), clearly indicate the potentiated effect of the Nb-CTAB species.

For the compound `CCCCCCCCCCCCCCCC[N+](C)(C)C.[Br-]` [CTAB, hexadecyltrimethylammonium bromide], the viral load reduction entry is given as “approximately 30%”.
